# Reference: patent US9260408B2, “Dihydroquinoline-2-one derivatives” (Hoffmann-La Roche Inc., priority 2011, dated 2016)
# How the values were obtained:
# human CYP11B1 = target: T1, human CYP11B1 (Homo sapiens, UniProt P15538); assay: G-402 cellular enzyme assay, human CYP11B1 (cortisol release, HTRF); assay type: cell-based; settings: G-402 cells expressing human CYP11B1; 1 μM Deoxycortisol
# T1 construct: expressed in transfected cells
# T1 sequence (P15538 25-503): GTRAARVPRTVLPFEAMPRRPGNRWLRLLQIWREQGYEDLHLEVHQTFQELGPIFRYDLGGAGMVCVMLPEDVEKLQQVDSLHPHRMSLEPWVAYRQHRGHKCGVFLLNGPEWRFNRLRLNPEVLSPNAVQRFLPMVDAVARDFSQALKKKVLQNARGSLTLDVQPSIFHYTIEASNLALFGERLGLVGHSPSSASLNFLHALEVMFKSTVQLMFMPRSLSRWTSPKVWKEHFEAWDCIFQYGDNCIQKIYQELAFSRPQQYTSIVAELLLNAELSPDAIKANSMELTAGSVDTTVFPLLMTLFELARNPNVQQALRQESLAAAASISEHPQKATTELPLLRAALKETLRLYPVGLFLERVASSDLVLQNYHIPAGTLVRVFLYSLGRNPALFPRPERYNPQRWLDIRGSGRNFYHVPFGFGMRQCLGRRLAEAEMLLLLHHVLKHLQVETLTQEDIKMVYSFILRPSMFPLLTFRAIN
# How it was run: (§1)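 G-402 cells stably expressing human CYP11B2 or CYP11B1, in DMEM/F12 with 2.5% charcoal-treated FCS, were incubated 16 h with compound plus 1 μM deoxycorticosterone (CYP11B2) or 1 μM deoxycortisol (CYP11B1). Aldosterone or cortisol in the supernatant measured by HTRF; EC50 from a 4-parameter MMF fit.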
# human CYP11B2 = target: T2, human CYP11B2 (Homo sapiens, UniProt P19099); assay: G-402 cellular enzyme assay, human CYP11B2 (aldosterone release, HTRF); assay type: cell-based; settings: G-402 cells expressing human CYP11B2; 1 μM Deoxycorticosterone
# T2 construct: expressed in transfected cells
# T2 sequence (P19099 25-503): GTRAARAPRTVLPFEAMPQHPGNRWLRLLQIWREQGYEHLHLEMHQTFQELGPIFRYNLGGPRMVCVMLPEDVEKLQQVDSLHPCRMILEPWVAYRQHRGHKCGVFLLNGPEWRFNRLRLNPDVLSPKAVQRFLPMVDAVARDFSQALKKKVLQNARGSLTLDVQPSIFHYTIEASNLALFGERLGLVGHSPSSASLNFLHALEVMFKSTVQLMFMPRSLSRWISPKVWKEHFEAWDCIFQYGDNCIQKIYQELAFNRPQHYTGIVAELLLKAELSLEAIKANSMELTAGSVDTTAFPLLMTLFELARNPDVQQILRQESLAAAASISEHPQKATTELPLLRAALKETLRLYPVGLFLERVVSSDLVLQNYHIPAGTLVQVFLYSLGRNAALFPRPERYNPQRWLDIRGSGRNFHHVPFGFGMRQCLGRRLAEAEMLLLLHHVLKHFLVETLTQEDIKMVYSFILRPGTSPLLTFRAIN
# How it was run: as §1
# [1] = tested on: rats with experimental heart failure; settings: rat, in vivo; cited from earlier work
# [2] = tested on: rat model of chronic kidney disease; settings: cited from earlier work; for plasma aldosterone: FAD286: 4 weeks of treatment, spironolactone: 4 and 8 weeks of treatment; for renal effects (albuminuria, azotemia, renovascular hypertrophy, glomerular injury, PAI-1 and osteopontin mRNA, tubulointerstitial fibrosis): angiotensin II and high salt treatment; for angiotensin II and salt-stimulated PAI-1 mRNA expression in the aorta and the heart: rat, in vivo
# CYP11B2 = CYP11B2 (Homo sapiens, UniProt P19099); settings: patients with primary aldosteronism, cited from earlier work
EC50 (human CYP11B1),EC50 (human CYP11B2),SMILES,plasma aldosterone [2],"renal effects (albuminuria, azotemia, renovascular hypertrophy, glomerular injury, PAI-1 and osteopontin mRNA, tubulointerstitial fibrosis) [2]",angiotensin II and salt-stimulated PAI-1 mRNA expression in the aorta and the heart [2],other results
0.623 µM,0.009 µM,"CCC(=O)NCc1cncc(-c2ccc3c(c2)CCC(=O)N3C)c1Cl [Example 265, N-[4-Chloro-5-(1-methyl-2-oxo-1,2,3,4-tetrahydro-quinolin-6-yl)-pyridin-3-ylmethyl]-propionamide]",,,,
0.236 µM,0.001 µM,"Cc1noc(C)c1C(=O)NCCOc1cncc(-c2cc3c(cc2F)N(C)C(=O)CC3)c1 [Example 267, 3,5-Dimethyl-isoxazole-4-carboxylic acid {2-[5-(7-fluoro-1-methyl-2-oxo-1,2,3,4-tetrahydro-quinolin-6-yl)-pyridin-3-yloxy]-ethyl}-amide]",,,,
,,N#Cc1ccc(C2CCCc3cncn32)cc1 (stereo not shown) [FAD286],reduced,prevented these renal effects,not,blood pressure and cardiovascular function and structure [1]: improved; kidney function and morphology [1]: improve
,,N#Cc1ccc([C@H]2CCc3cncn32)c(F)c1 [LCI699],,,,circulating aldosterone levels (CYP11B2; oral): significantly lower; blood pressure (CYP11B2): mildly decreased; hypokalemia (CYP11B2): corrected; selectivity (effects on the glucocorticoid axis) (CYP11B2): poor selectivity
,,CC(=O)S[C@@H]1CC2=CC(=O)CC[C@]2(C)[C@H]2CC[C@@]3(C)[C@@H](CC[C@@]34CCC(=O)O4)[C@H]12 [spironolactone],increased,prevented these renal effects,enhanced,
